Source: PMC6282036, “Dual-Specificity Phosphatase CDC25B Was Inhibited by Natural Product HB-21 Through Covalently Binding to the Active Site” (Frontiers in Chemistry, 2018)

How the values were obtained:
Cdc25B [1] = target: T1, Cdc25B (Homo sapiens, UniProt P30305); assay: intact protein ESI-Q-TOF MS of covalent adducts; IC50 from OMFP fluorometric assay with recombinant Cdc25B; type: biochemical
T1 construct: Cdc25B catalytic domain (372–551)
T1 sequence (P30305 386-565): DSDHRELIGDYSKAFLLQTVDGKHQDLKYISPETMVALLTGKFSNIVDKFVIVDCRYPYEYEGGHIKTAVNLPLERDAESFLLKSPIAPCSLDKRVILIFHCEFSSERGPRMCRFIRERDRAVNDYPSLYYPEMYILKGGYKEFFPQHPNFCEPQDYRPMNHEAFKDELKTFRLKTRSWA

Cdc25B [2] = target: T2, Cdc25B (Homo sapiens, UniProt P30305); assay: OMFP fluorometric phosphatase assay (CycLex Cdc25B kit), positive control; type: biochemical
T2 construct: recombinant human Cdc25B
T2 sequence (P30305 1-580): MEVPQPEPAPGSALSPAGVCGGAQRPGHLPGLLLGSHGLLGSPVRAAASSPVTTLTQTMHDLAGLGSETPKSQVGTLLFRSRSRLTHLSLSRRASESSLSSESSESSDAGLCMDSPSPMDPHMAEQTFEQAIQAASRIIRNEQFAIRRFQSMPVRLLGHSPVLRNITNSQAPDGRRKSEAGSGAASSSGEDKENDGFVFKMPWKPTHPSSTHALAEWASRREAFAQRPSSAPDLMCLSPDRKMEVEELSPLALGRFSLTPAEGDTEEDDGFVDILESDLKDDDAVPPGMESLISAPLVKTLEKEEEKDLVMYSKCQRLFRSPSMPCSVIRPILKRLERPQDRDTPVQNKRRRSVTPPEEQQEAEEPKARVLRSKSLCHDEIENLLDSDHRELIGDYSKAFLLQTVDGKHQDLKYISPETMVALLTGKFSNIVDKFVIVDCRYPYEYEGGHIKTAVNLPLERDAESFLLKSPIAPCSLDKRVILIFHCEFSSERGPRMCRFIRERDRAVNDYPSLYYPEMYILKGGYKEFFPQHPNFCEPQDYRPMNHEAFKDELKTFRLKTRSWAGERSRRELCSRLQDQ

SMILES | IC50 (Cdc25B [1]) [µM] | IC50 (Cdc25B [2]) [µM]
C=C1C(=O)O[C@@H]2C[C@H](C)C(CCC(C)=O)=C[C@H](O)[C@H]12 [HB-21] | 24.8 ± 1.63 | 
CNC1=CC(=O)c2ccncc2C1=O [Caulibugulone A] |  | 5.37 ± 0.45
